Laboratory results reported in US4929739A, “Complexes of tellurium and selenium derivatives” (Bar-Ilan University, priority 1988, dated 1990).
Like-named read-outs stand apart in the source and are kept apart here. Each block holds one molecule with its values, some of them ahead of it.

Key:
IL-2 = assay: mouse spleen assay, IL-2 activity of supernatants (tritiated thymidine); type: cell-based, mouse (male Balb-c); settings: for IL-2 activity, 12.5% supernatant / IL-2 activity, 25% supernatant: Table 1, PMA, 96 h; for IL-2 production, supernatant 12.5% / IL-2 production, supernatant 25%: Table 2; for IL-2 activity, 12.5% supernatant / IL-2 production, supernatant 12.5%: 12.5% supernatant; for IL-2 activity, 25% supernatant / IL-2 production, supernatant 25%: 25% supernatant
Description: Two citrate buffer solutions are prepared by combining aqueous 0.05M sodium citrate with 0.05M citric acid or 0.1M sodium citrate and 0.1M citric acid. […] To these solutions are added up to 5 mg/ml of ammomium trichloro (dioxoethylene-0,0') tellurate.
After storage at various temperatures for about two and a half months, dilutions of these solutions were prepared and a mouse spleen assay was performed as follows:
Spleens were removed from male Balb-c mice 6 to 8 weeks of age. The spleen cells were pushed through stainless steel 60 mesh (U.S. standard) nets resting in […] Petri dishes containing PBS in order to separate the cells. The cells were then collected into centrifuge tubes and spun at 1000 rpm for 10 minutes. The supernatant was discarded and cells were treated with 5 ml of hypotonic buffer (0.15 MNH4 Cl; 0.01M KHCO3 dissolved in double distilled water, pH 7.2) for exactly two minutes. Thereafter, PBS* was added to the cells amd the test tubes were centrifuged for 10 minutes at 1000 rpm. The cells were rinsed twice and counted in a heamocytometer using trypan blue to test for viability. The cells were brought to a concentration of 10^7 viable cells/ml. […] Thereafter, the cells were incubated at 37° C., 7.5% CO2 for 96 h. Supernatants were collected and assayed for IL-2 activity using tritiated thymidine (^3 H-TdR).
A 0.04M tartrate buffer in also prepared using the same procedures. The complex is formed by adding ammonium trichloro (dioxoethylene-0,0'-) tellurate to the aqueous tartrate buffer. The effectiveness of the complex in stimulating IL-2 production was determined in the mouse spleen assay.

human mononuclear cells = assay: stimulation of human mononuclear cells, proliferation (3H-methylthymidine); type: cell-based; design: unit not given here; settings: Table 3
Description: Citrate and tartrate complexes of ammonium trichloro (dioxoethylene-0,0') tellurate are tested for the stimulation of human mononuclear cells.
Venous whole blood (with heparin; Evans 10 IU/ml blood) is diluted with RPMI in a ratio of 1:1. […] Each tube is provided with 3 ml Lymphoprep and 6 to 7 ml diluted blood. The tubes are centrifuged 30 minutes at 1600 rpm at room temperature. After the centrifugation mononuclear cells are collected from the interphase fraction and washed with RPMI three times. The cells are resuspended in RPMI, counted on a hemocytometer, using trypan blue to test for viability and then are brought to a concentration of […] in enriched RPMI. The concentrations set forth in Table 3 were added in a volume of 10% of cell mixture. Aliquots of 0.2 ml from each sample were placed in wells of microplates (NUNC) (triplicates). The microplates are incubated for 72 hours at 37° C. after which ^ 3 H-methylthymidine, 1U Ci/well (Nuclear Research Center, Israel) are added to the cultures. Cells were further incubated overnight and harvested with a cell harvester.

[1] = solubilization in aqueous buffer; type: physicochemical
Source text: The complexes of the invention may be formed by contacting a compound of Formulas A-E with a non-toxic pharmaceutically acceptable complexing agent which forms a water soluble complex with said tellurium or selenium compound. Suitable complexing agents include hydroxy polycarboxylic acids, polycarboxylic acids or polyhydroxy polycarboxylic acids. Generally, it is preferred to prepare the complexes of the invention by contacting a compound of Formulas A-E with a buffer system containing either citric acid or tartaric acid and a corresponding alkali metal salt thereof, such as sodium or potassium.
Generally equimolar amounts of acids and the corresponding alkali metal salts may be combined in aqueous solutions with a compound of Formulas A-E to form the complex of the invention; 0.05M-0.5M concentration of the buffer are preferred but higher or lower amounts may be utilized provided that the concentration is adequate to dissolve the particular compound of Formulas A-E. Higher molarities may be used to provide concentrates that may be diluted prior to IV administration or to prepare other dosage forms. The amount of the compound of Formulas A-E is dependent on the ultimate use of the product. […] This is in contrast to the phosphate buffer (PBS) from which only about 200 mcg/ml of ammonium trichloro (dioxoethylene-0,0') tellurate can be solubilized. […]

[2] = system: producer T-cell lymphocytes; assay: lymphokine production in producer T-cell lymphocytes in vitro; type: cell-based; settings: alone
[3] = system: producer T-cell lymphocytes; assay: lymphokine production in producer T-cell lymphocytes in vivo; settings: alone
IL-2 producer cells = assay: proliferation of IL-2 producer cells; type: cell-based
[4] = preliminary toxicity studies in mice; type: in vivo; settings: 6 week old mice
Description: (§1) Preliminary toxicity studies in mice have established an LD50 of 300 μg./25 g of body weight in 6 week old mice for the compound of Example 1. The compounds may be used as anti-bacterial or anti-viral agents in plants or in animals. Virus infections such as West Nile virus infections in mice are susceptible to the compound of the Example 1 at a dose of 10 μg/day/mouse. Plant bacterial infections such as crown gall caused by Agrobacterium tumefaciens may be treated or prevented by the application of a 0.1% solution of compounds of the invention.

West Nile virus = West Nile virus infections in mice; type: in vivo; settings: 10 μg/day/mouse
Description: as §1

solubility ([1]; citrate buffer, aqueous buffer, read-out: concentration solubilized in citrate): ≥ 5000 µg/mL
solubility ([1]; phosphate buffer (pbs), read-out: concentration solubilized in phosphate buffer): ~200 µg/mL
SMILES: Cl[TeH]1(Cl)(Cl)OCCO1 [ammonium trichloro (dioxoethylene-0,0') tellurate]
IL-2 activity, 12.5% supernatant (IL-2; 0.05 μg/ml): 1865 cpm
IL-2 activity, 25% supernatant (IL-2; 0.05 μg/ml): 3762 cpm
IL-2 activity, 12.5% supernatant (IL-2; 0.1 μg/ml): 28035 cpm
IL-2 activity, 25% supernatant (IL-2; 0.1 μg/ml): 44378 cpm
IL-2 activity, 25% supernatant (IL-2; 0.5 μg/ml ammonium trichloro(dioxoethylene) tellurate): 43833 cpm
IL-2 activity, 12.5% supernatant (IL-2; 0.5 μg/ml): 35270 cpm
IL-2 production, supernatant 12.5% (IL-2; 0.05 μg/ml): 1865 cpm
IL-2 production, supernatant 12.5% (IL-2; 0.1 μg/ml): 28035 cpm
IL-2 production, supernatant 25% (IL-2; 0.1 μg/ml): 44378 cpm
IL-2 production, supernatant 12.5% (IL-2; 0.5 μg/ml): 35270 cpm
IL-2 production, supernatant 25% (IL-2; 0.5 μg/ml): 43833 cpm
IL-2 production, supernatant 25% (IL-2): 3762 cpm
proliferation of mononuclear cells (human mononuclear cells; 0.05 μg/ml, PMA 0.5 ng/ml cells): 6663
proliferation of mononuclear cells (human mononuclear cells; 0.05 μg/ml, PMA 1.5 ng/ml cells): 12923
proliferation of mononuclear cells (human mononuclear cells; 0.1 μg/ml, PMA 0.5 ng/ml cells): 19810
proliferation of mononuclear cells (human mononuclear cells; 0.1 μg/ml, PMA 1.5 ng/ml cells): 42857
proliferation of mononuclear cells (human mononuclear cells; 0.5 μg/ml, PMA 0.5 ng/ml cells): 2945
proliferation of mononuclear cells (human mononuclear cells; 0.5 μg/ml, PMA 1.5 ng/ml cells): 3287

SMILES: O=[Te]=O [TeO2]
induction of lymphokine production in vitro [2]: will induce lymphokine production
induction of lymphokine production in vivo [3]: will induce lymphokine production
proliferation in producing cells such as IL-2 producer cells (IL-2 producer cells): will not cause proliferation

SMILES: Cl[Te]1(Cl)(Cl)OCCO1.N [Example 1, ammomium trichloro (dioxoethylene-0,0') tellurate]
LD50 [4]: 300 μg./25 g of body weight
susceptibility of West Nile virus infections (West Nile virus): susceptible
